# Reference: patent US5830911A, “Pyranoindole and tetrahydrocarbazole inhibitors of COX-2” (American Home Products Corporation, priority 1997, dated 1998)
# Columns and labels:
# rhCOX-2 = biological target: T1, rhCOX-2 (Homo sapiens, UniProt P35354); assay: Inhibition of recombinant human COX-2 (PGH2 converted to PGF2α, EIA); assay type: biochemical; details: for IC50: human recombinant COX-2, 30 min preincubation, 37° C.
# T1 construct: made in house; microsomal preparation
# T1 sequence (P35354 18-604): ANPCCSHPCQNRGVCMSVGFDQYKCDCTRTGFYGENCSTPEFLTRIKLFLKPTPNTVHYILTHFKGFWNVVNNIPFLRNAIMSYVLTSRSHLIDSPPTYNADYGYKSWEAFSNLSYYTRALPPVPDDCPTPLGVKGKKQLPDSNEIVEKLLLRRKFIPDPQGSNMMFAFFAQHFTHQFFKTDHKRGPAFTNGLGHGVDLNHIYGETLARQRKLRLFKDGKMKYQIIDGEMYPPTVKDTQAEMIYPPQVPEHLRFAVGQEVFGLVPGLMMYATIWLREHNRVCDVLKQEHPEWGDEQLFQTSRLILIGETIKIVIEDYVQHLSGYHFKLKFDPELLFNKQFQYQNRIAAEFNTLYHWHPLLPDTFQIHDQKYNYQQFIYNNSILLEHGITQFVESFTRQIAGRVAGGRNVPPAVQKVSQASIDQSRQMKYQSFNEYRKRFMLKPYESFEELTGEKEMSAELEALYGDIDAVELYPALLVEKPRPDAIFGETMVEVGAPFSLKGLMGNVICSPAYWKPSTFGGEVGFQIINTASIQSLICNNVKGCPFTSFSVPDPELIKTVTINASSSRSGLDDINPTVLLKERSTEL
# Method: (§1) Representative compounds of this invention were evaluated for inhibition of COX-2 and COX-1 enzymes as follows. Human COX-1 and COX-2 cDNAs were cloned from human monocytes, untreated and LPS-treated respectively, by RT-PCR using oligonucleotide primers based on published hCOX-1 and hCOX-2 sequences (Jones et al., J. Biol. Chem., 268, 9049 (1993)). The cDNAs were then transfected into either Sf9 or CHO cells and subsequently converted into a microsomal preparation as described by Glaser et al (Eur. J. Pharmacol. 281, 107-111 (1995)). The microsomal human recombinant enzymes were diluted with buffer (100 mM Tris, pH 7.8 at 37° C.) containing 0.5 mM phenol ([…] total volume). The enzyme preparations were preincubated with vehicle (DMSO) or compounds in DMSO (1 % DMSO in final assay) for 30 min at 37° C. Excess hematin was added 1 min prior to initiation of reaction (1.25 mM final hematin) with 30 mM arachidonic acid (sodium salt). Final assay volume was 1.0 ml (100 mM Tris (pH 7.8), 0.5 mM phenol, 1.25 mM hematin and 30 mM arachidonic acid at 37° C.).
# The reaction was incubated for 35 sec (maximum level of PGH2 accumulation as determined from time course studies), and terminated by addition of […] of SnCl2 (1 mg/ml) in 0.1N HCl. PGH2 is quantitatively converted to PGF2a by this reaction (50% efficiency of total conversion). The pH of each tube is adjusted to pH 3.0-3.5 with 0.1N--NaOH and extracted twice with 1.5 ml of ethyl acetate (75-90% efficiency per extraction). Combined ethyl acetate extracts were dried under N2 (g) and redissolved in EIA buffer (2.0 ml), and PGF2α ( was quantified by EIA.
# purified ovine COX-1 = biological target: T2, purified ovine COX-1 (Ovis aries, UniProt P05979); assay: Inhibition of purified ovine COX-1 (PGH2 converted to PGF2α, EIA); assay type: biochemical; details: for inhibition at 90 µM / inhibition at 30 µM / inhibition at 270 µM / inhibition at 10 µM: read-out: % inh of pur. bovine COX-1
# T2 construct: purchased Cayman Chemicals (Ann Arbor, Mich.)
# T2 sequence (P05979 25-600): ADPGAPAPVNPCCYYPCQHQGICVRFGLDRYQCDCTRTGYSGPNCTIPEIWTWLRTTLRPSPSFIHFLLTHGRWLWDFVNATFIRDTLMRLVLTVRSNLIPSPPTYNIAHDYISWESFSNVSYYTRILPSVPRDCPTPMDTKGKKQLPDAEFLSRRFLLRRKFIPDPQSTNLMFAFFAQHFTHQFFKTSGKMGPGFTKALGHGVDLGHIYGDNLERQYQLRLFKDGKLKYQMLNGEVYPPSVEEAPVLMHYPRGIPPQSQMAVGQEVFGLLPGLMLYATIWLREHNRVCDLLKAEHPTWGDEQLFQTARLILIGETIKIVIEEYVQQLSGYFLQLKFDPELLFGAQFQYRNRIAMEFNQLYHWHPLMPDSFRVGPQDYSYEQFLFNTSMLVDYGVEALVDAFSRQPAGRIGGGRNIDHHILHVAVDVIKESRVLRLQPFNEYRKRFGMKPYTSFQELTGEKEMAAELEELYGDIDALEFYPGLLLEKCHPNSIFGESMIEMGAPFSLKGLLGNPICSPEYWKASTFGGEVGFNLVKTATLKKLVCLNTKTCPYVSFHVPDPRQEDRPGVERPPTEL
# Method: [The source words this procedure for another species and reports this species under the same test.] as §1, with “C.). The reaction was incubated for 35 sec (maximum level of PGH2 accumulation as determined from time course studies), and terminated by addition of […] of SnCl2 (1 mg/ml) in 0.1N HCl. PGH2 is quantitatively converted to PGF2a by this reaction (50% efficiency of total conversion). The pH of each tube is adjusted to pH 3.0-3.5 with 0.1N--NaOH and extracted twice with 1.5 ml of ethyl acetate (75-90% efficiency per extraction).” for “C.).”
# COX-2 = details: literature; cited from earlier work
# [1] = Rogers et al., Neurology 43, 1609-1611 (1993); cited from earlier work
# [2] = Futaki et al., Gen. Pharmac. 24, 105-110, 1993; cited from earlier work
# [3] = Futaki et al., Gen. Pharmac. 24, 105-110, 1993; cited from earlier work; remark: listed apart in the source
smiles,measurement,setting,value
"CCCC1(CC(=O)O)OCCc2c1[nH]c1c(F)ccc(C#N)c21 (centres unmarked) [Example 1, 5-Cyano-8-fluoro-1-propyl-1,3,4,9-tetrahydropyrano[3,4-b]indole-1-acetic acid]",IC50,rhCOX-2,1 µM
"CCCC1(CC(=O)O)OCCc2c1[nH]c1c(C)ccc(C#N)c21 (centres unmarked) [Example 2, 5-Cyano-8-methyl-1-propyl-1,3,4,9-tetrahydropyrano[3,4-b]indole-1-acetic acid]",inhibition at 90 µM,purified ovine COX-1,86%
same,inhibition at 3 µM,"rhCOX-2; at 3 μM, read-out: % inh of rhCOX-2",38%
"CCC1(CC(=O)O)OCCc2c1[nH]c1cccc(C#N)c21 (centres unmarked) [Example 3, 5-Cyano-1-ethyl-1,3,4,9-tetrahydropyrano[3,4-b]indole-1-acetic acid]",inhibition at 30 µM,purified ovine COX-1,47%
same,inhibition at 270 µM,purified ovine COX-1,31%
same,IC50,rhCOX-2,0.57 µM
"CCCC1(CC(=O)O)OCCc2c1[nH]c1cccc(C#N)c21 (centres unmarked) [Example 4, 5-Cyano-1-propyl-1,3,4,9-tetrahydropyrano[3,4-b]indole-1-acetic acid]",IC50,"purified ovine COX-1; purified ovine COX-1, 30 min preincubation, 37° C.",> 1000 µM
same,IC50,rhCOX-2,1.7 µM
"C=CCC1(CC(=O)O)CCCc2c1[nH]c1c(F)ccc(C#N)c21 (centres unmarked) [Example 5, 1-Allyl-5-cyano-8-fluoro-2,3,4,9-tetrahydro-1H-carbazole-1-acetic acid]",inhibition at 10 µM,purified ovine COX-1,93%
same,IC50,rhCOX-2,0.1 µM
"CCCC1(CC(=O)O)CCCc2c1[nH]c1c(F)ccc(C#N)c21 (centres unmarked) [Example 6, 5-Cyano-8-fluoro-1-propyl-2,3,4,9-tetrahydro-1H-carbazole-1-acetic acid]",inhibition at 10 µM,purified ovine COX-1,73%
same,IC50,rhCOX-2,0.32 µM
"C=CCC1(CC(=O)O)CCCc2c1[nH]c1c(C)ccc(C#N)c21 (centres unmarked) [Example 7, 1-Allyl-5-cyano-8-methyl-2,3,4,9-tetrahydro-1H-carbazole-1-acetic acid]",inhibition at 30 µM,purified ovine COX-1,99%
same,inhibition at 0.3 µM,"rhCOX-2; at 0.3 μM, read-out: % inh of rhCOX-2",75%
"CCCC1(CC(=O)O)CCCc2c1[nH]c1c(C)ccc(C#N)c21 (centres unmarked) [Example 8, 5-Cyano-1-propyl-8-methyl-2,3,4,9-tetrahydro-1H-carbazole-1-acetic acid]",inhibition at 270 µM,purified ovine COX-1,99%
same,inhibition at 1 µM,rhCOX-2; read-out: % inh of rhCOX-2,44%
"CCCC1(CC(=O)O)CCCc2c1[nH]c1c(C(N)=O)ccc(C#N)c21 (centres unmarked) [Example 9, 8-Carboxamido-5-cyano-1-propyl-2,3,4,9-tetrahydro-1H-carbazole-1-acetic acid]",inhibition at 90 µM,purified ovine COX-1,-37%
same,inhibition at 0.1 µM,rhCOX-2; read-out: % inh of rhCOX-2,21%
"CCCC1(CC(=O)O)CCCc2c1[nH]c1cccc(C#N)c21 (centres unmarked) [Example 10, 5-Cyano-1-propyl-2,3,4,9-tetrahydro-1H-carbazole-1-acetic acid]",inhibition at 90 µM,purified ovine COX-1,74%
same,inhibition at 0.1 µM,rhCOX-2; read-out: % inh of rhCOX-2,18%
"C=CCC1(CC(=O)O)CCCc2c1[nH]c1c(C#N)ccc(C#N)c21 (centres unmarked) [Example 11, 1-Allyl-5,8-dicyano-2,3,4,9-tetrahydro-1H-carbazole-1-acetic acid]",inhibition at 270 µM,purified ovine COX-1,86%
same,inhibition at 1 µM,rhCOX-2; read-out: % inh of rhCOX-2,91%
"CCCC1(CC(=O)O)CCCc2c1[nH]c1c(C#N)ccc(C#N)c21 (centres unmarked) [Example 12, 5,8-Dicyano-1-propyl-2,3,4,9-tetrahydro-1H-carbazole-1-acetic acid]",inhibition at 270 µM,purified ovine COX-1,98%
same,inhibition at 1 µM,rhCOX-2; read-out: % inh of rhCOX-2,78%
"CCCC1(CC(=O)O)CCCc2c1[nH]c1cc(C#N)ccc21 (centres unmarked) [Example 13, 7-Cyano-1-propyl-2,3,4,9-tetrahydro-1H-carbazole-1-acetic acid]",inhibition at 90 µM,purified ovine COX-1,100%
same,inhibition at 0.1 µM,rhCOX-2; read-out: % inh of rhCOX-2,31%
COc1ccc2c(c1)c(CC(=O)O)c(C)n2C(=O)c1ccc(Cl)cc1 [Indomethacin],selectivity for inhibition of COX-2,COX-2,relatively non-selective inhibitor of COX-1 and COX-2
same,treatment of Alzheimer's disease,[1],useful in the treatment of Alzheimer's disease
CS(=O)(=O)Nc1ccc([N+](=O)[O-])cc1OC1CCCCC1 [N-(2-cyclohexyloxy-4-nitrophenyl)methanesulfonamide],antiinflammatory effect,[2],effective antiinflammatory
same,gastric side effects,[3],lacks gastric side effects
same,selectivity for inhibition of COX-2,COX-2,selective COX-2 inhibitor
CCc1cccc2c3c([nH]c12)C(CC)(CC(=O)O)OCC3 (centres unmarked) [etodolac],selectivity for inhibition of COX-2,COX-2,tenfold
